Key:
SGLT2 = target: T1, SGLT2 (Homo sapiens, UniProt P31639); assay: 14C-AMG uptake in BHK cells transfected with SGLT2 (96-well cell-based assay); settings: 2 mM AMG, 37° C., 90 min
T1 construct: expressed in transfected cells
T1 sequence (P31639 1-672): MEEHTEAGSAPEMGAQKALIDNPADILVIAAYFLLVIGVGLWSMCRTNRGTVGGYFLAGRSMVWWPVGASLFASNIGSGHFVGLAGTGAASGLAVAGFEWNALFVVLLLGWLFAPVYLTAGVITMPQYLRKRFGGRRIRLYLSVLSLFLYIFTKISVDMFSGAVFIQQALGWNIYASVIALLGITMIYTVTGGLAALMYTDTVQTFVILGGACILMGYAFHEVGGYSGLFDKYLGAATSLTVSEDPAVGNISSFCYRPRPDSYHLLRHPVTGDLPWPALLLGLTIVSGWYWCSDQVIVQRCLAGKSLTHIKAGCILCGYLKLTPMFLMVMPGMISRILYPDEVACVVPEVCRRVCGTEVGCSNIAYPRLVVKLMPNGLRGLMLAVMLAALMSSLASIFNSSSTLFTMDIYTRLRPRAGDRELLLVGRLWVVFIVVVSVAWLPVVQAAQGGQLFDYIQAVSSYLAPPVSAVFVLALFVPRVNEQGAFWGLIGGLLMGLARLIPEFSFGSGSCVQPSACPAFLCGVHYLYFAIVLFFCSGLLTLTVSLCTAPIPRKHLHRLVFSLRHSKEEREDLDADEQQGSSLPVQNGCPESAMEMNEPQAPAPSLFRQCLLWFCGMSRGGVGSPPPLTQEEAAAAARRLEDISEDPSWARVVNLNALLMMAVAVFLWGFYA
Description: (§1) The compounds can be tested for their SGLT inhibition properties by means of BHK cells expressing SGLT1 and SGLT2. The production of the cells and the testing can be carried out as described below.
To construct the SGLT2 expression vector (KL224), the SLC5A2 gene (homologous to NM_003041) was amplified from a cDNA library using standard PCR technology and cloned over NheI/XhoI sites into PCI-neo expression vector (Promega) containing neomycin as a selection marker. In this vector, transcription uses the enhancer/promoter of human cytomegalovirus and the SV40 polyadenylation signal.
(§2) The final vector KL224 together with an additional vector containing a dihydrofolate reductase gene as a selection marker was introduced into cells. Transfection into BHK21 cells (ATCC CCL-10), cultivated in DMEM medium (GIBCO/BRL), supplemented with 10% foetal calf serum (FCS) and 20 mM glutamine, was carried out using calcium phosphate transfections according to Graham, F. L. and van der Ebb, A. J. (1973), Virology 52: 456 with 5-20 μg of uncut plasmids for 10^7 cells. Stable transfectants were selected in medium containing 1 mg/ml of G418 (GIBCO/BRL) and 20-5000 nM methotrexate as final concentration, where only cells which expressed the neomycin gene and overexpressed the dhfr gene were able to grow. After growth for 2-3 weeks, the cells were cloned (0.5 cells/well) and the clones were investigated for SGLT expression in radioactivity uptake tests.
(§3) The uptake of ^14C-α-methyl-D-glucopyranoside (AMG) in, for example, Xenopus oocytes injected with the corresponding cRNA has been described in principle (for example Wen-Sen Lee et al. (1994), J. Biol. Chem. 269, 12032-12039; Guofeng You et al. (1995), J. Biol. Chem. 270, 29365-29371).
(§4) A 96-well cell-based assay was developed and adapted to HTS requirements:
(§5) BHK cells (transfected with SGLT1 or SGLT2) were seeded into 96-well microtitre plates (Cultureplates, Perkin Elmer). After at least 24 h, medium was removed, and the cell layer was washed with assay buffer (140 mM NaCl, 2 mM KCl, 1 mM CaCl2, 1 mM MgCl2, 10 mM HEPES, 5 mM Tris, adjusted to pH 7.4 using 1 M KOH). After addition of 40 μl of assay buffer, 50 μl of AMG (50 μM for SGLT1 and 2 mM for SGLT2) in the presence or absence of compounds, the cells were incubated in a total volume of 100 μl at 37° C. for 90 min. Supernatant was removed by suction and discarded. Cells were washed and lysed by addition of 50 μl of water. After 10 min at room temperature, 200 μl of Micrsoscint 40 (Perkin Elmer) were added. The radioactivity was counted in a Topcount microplate scintillation counter (Perkin Elmer). The non-specific uptake was determined in sodium-free assay buffer (266 mM sucrose, 2 mM KCl, 1 mM CaCl2, 1 mM MgCl2, 10 mM HEPES, 5 mM Tris, adjusted to pH 7.4 using 1 M KOH).

SGLT1 = target: T2, SGLT1 (Homo sapiens, UniProt P13866); assay: 14C-AMG uptake in BHK cells transfected with SGLT1 (96-well cell-based assay); settings: 50 μM AMG, 37° C., 90 min
T2 construct: expressed in transfected cells
T2 sequence (P13866 1-664): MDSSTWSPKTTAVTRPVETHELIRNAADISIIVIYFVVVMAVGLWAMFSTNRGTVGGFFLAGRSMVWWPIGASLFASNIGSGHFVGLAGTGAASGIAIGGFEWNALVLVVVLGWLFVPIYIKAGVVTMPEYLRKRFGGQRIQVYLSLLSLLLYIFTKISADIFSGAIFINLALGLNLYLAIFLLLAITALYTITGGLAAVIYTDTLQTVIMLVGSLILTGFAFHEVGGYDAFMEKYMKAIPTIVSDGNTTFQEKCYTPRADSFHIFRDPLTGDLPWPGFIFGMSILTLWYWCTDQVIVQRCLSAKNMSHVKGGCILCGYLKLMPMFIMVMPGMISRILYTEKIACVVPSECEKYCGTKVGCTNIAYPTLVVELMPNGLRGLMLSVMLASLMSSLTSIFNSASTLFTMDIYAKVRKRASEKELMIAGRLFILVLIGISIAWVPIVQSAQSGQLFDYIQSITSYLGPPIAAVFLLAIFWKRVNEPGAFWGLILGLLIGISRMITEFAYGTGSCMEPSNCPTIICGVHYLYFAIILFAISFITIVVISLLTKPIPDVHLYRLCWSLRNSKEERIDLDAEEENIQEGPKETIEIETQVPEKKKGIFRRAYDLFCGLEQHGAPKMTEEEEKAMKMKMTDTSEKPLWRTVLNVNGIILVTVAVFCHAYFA
Description: as §1
To construct the SGLT1 expression vector (KL225), the SLC5A1 gene (homologous to NM_000343) was amplified from a cDNA library using standard PCR technology and cloned over NheI/XhoI sites into the pcDNA3.1 expression vector (Invitrogen) containing neomycin as a selection marker. In this vector, transcription uses the enhancer/promoter of human cytomegalovirus.
as §2, with “KL225” for “KL224”
as §3, §4, §5

IC50 (SGLT2) [µM]	IC50 (SGLT1) [µM]	SMILES
1 to 10		COc1cccc(-c2nc3ccccc3n2Cc2c(C)cccc2C)c1OCC(N)=O [Compound A11, 2-{2-[1-(2,6-Dimethylbenzyl)-1H-benzimidazol-2-yl]-6-methoxyphenoxy}acetamide]
0.01 to 1	> 10	Cc1cccc(C)c1Cn1c(-c2ccccc2OCC(N)=O)nc2ccc(F)cc21 [Compound A4, 2-{2-[1-(2,6-Dimethylbenzyl)-6-fluoro-1H-benzimidazol-2-yl]phenoxy}acetamide]
0.01 to 1	> 10	Cc1cccc(C)c1Cn1c(-c2ccccc2OCC(N)=O)nc2cc(F)c(F)cc21 [Compound A5, 2-{2-[1-(2,6-Dimethylbenzyl)-5,6-difluoro-1H-benzimidazol-2-yl]phenoxy}acetamide]
> 10	> 10	Cc1cccc(C)c1C(=O)n1c(-c2ccccc2OCC(N)=O)nc2ccccc21 [Compound A25, 2-{2-[1-(2,6-Dimethylbenzoyl)-1H-benzimidazol-2-yl]phenoxy}acetamide]
0.01 to 1		Cc1cccc(C)c1Cn1c(-c2c(F)cccc2OCC(N)=O)nc2ccccc21 [Compound A3, 2-{2-[1-(2,6-Dimethylbenzyl)-1H-benzimidazol-2-yl]-3-fluorophenoxy}acetamide]
1 to 10	> 10	Cc1cccc(C)c1Cn1c(-c2ccccc2OC2CCNC2=O)nc2ccccc21 (centres unmarked) [Compound A26, 3-{2-[1-(2,6-Dimethylbenzyl)-1H-benzimidazol-2-yl]phenoxy}pyrrolidin-2-one]
1 to 10	> 10	NC(=O)COc1ccccc1-c1nc2cccc(Cl)c2n1Cc1c(Cl)cccc1Cl [Compound A21, 2-{2-[7-Chloro-1-(2,6-dichlorobenzyl)-1H-benzimidazol-2-yl]phenoxy}acetamide]
1 to 10	> 10	Cc1cccc(C)c1Cn1c(-c2ccccc2OCC(N)=O)nc2ccc(F)c(F)c21 [Compound A29, 2-{2-[1-(2,6-Dimethylbenzyl)-6,7-difluoro-1H-benzimidazol-2-yl]phenoxy}acetamide]
> 10	> 10	NC(=O)COc1ccccc1-c1nc2cc(Cl)ccc2n1Cc1c(Cl)cccc1Cl [Compound A18, 2-{2-[5-Chloro-1-(2,6-dichlorobenzyl)-1H-benzimidazol-2-yl]phenoxy}acetamide]
> 10		Cc1cccc(C)c1Cn1c(-c2ncccc2OCC(N)=O)nc2ccccc21 [Compound A16, 2-{2-[1-(2,6-Dimethylbenzyl)-1H-benzimidazol-2-yl]pyridin-3-yloxy}acetamide]
> 10	> 10	Cc1cccc(C)c1Cn1c(-c2ccccc2OCC(N)=O)nc2cccc(Br)c21 [Compound A23, 2-{2-[7-Bromo-1-(2,6-dimethylbenzyl)-1H-benzimidazol-2-yl]phenoxy}acetamide]
1 to 10	> 10	NC(=O)COc1ccccc1-c1nc2ccccc2n1Cc1c(F)cccc1F [Compound A9, 2-{2-[1-(2,6-Difluorobenzyl)-1H-benzimidazol-2-yl]phenoxy}acetamide]
0.01 to 1	> 10	Cc1cccc(C)c1Cn1c(-c2ccccc2OCC(N)=O)nc2ccccc21 [Compound A2, 2-{2-[1-(2,6-dimethylbenzyl)-1H-benzimidazol-2-yl]-phenoxy}acetamide]
0.01 to 1	> 10	Cc1cccc(C)c1Cn1c(-c2cccc(F)c2OCC(N)=O)nc2ccccc21 [Compound A10, 2-{2-[1-(2,6-Dimethylbenzyl)-1H-benzimidazol-2-yl]-6-fluorophenoxy}acetamide]
0.01 to 1	> 10	COc1cccc(OCC(N)=O)c1-c1nc2ccccc2n1Cc1c(C)cccc1C [Compound A15, 2-{2-[1-(2,6-Dimethylbenzyl)-1H-benzimidazol-2-yl]-3-methoxyphenoxy}acetamide]
> 10	> 10	NC(=O)COc1ccccc1-c1nc2ccccc2n1Cc1ccccc1 [Compound A8, 2-[2-(1-Benzyl-1H-benzimidazol-2-yl)phenoxy]-acetamide]
1 to 10	> 10	Cc1cccc(Cl)c1Cn1c(-c2ccccc2OCC(N)=O)nc2ccccc21 [Compound A22, 2-{2-[1-(2-Chloro-6-methylbenzyl)-1H-benzimidazol-2-yl]phenoxy}acetamide]
1 to 10	> 10	NC(=O)COc1ccccc1-c1nc2cc(F)ccc2n1Cc1c(Cl)cccc1Cl [Compound A19, 2-{2-[1-(2,6-Dichlorobenzyl)-5-fluoro-1H-benzimidazol-2-yl]phenoxy}acetamide]
1 to 10	> 10	COc1ccc(-c2nc3ccccc3n2Cc2c(C)cccc2C)c(OCC(N)=O)c1 [Compound A13, 2-{2-[1-(2,6-Dimethylbenzyl)-1H-benzimidazol-2-yl]-5-methoxyphenoxy}acetamide]
> 10	> 10	Cc1cccc(C)c1Cn1c(-c2ccccc2OC(CO)C(N)=O)nc2ccccc21 (centres unmarked) [Compound A27, 2-{2-[1-(2,6-Dimethylbenzyl)-1H-benzimidazol-2-yl]phenoxy}-3-hydroxypropionamide]
0.01 to 1		CNc1nnc(-c2ccccc2-c2nc3ccccc3n2Cc2c(C)cccc2C)o1 [Compound A31]
